Experimental data: patent US20260072030A1, “RAS BIOSENSORS” (The Regents of the University of California, priority 2022, published 2026)

Key:
Assay type in all cases: cell-based
Src = Src inhibitor pretreatment, EGF-induced HRas activity measured with RasAR sensors in COS-7 cells; conditions: for effect of pretreatment on EGF-induced response, cytosolic RasAR: RasAR + HRasWT, 1 μM inhibitor
Text: To clarify the regulatory role of Src on HRas at the Golgi, we monitored HRas activity at the Golgi with GA-RasAR in the presence of Src inhibitor PP2.
Phosphorylation of residue Y32 has been implicated in the negative regulation of HRas by Src.31 To verify this mechanism of Src inhibition we co-expressed RasAR with HRasY32F and stimulated with EGF. […] KRas was recently shown to be negatively regulated by Src via dual phosphorylation of Y32 and Y64,28 which negatively impacts multiple steps of the GTPase cycle and impairs binding to effectors. However, the role of Y64 in HRas has not been investigated. To test the hypothesis that phosphorylation of both Y32 and Y64 is involved in Src regulation of HRas, we expressed RasAR and an mCherry-labeled HRas mutant containing Y32F/Y64F mutations and monitored EGF-induced responses in the presence and absence of PP2.
Cells were washed three times with Hanks's balanced salt solution (HBSS, Gibco) prior to imaging. Cells were imaged in HBSS in the dark at 37° C. […] Cells were imaged on a Zeiss Axio Observer Z1 microscope equipped with a 20×/0.8 NA objective and a Hamamatsu Flash 4.0 sCMOS camera, controlled using MicroManager 2.0 software. For time series, images from multiple fields of view were acquired at each time point at 30 sec intervals. RFP was imaged using a 568DF55 excitation filter, a 600DRLP dichroic mirror, and a 653DF95 emission filter. CFP was imaged using a 420DF20 excitation filter, a 455DRLP dichroic mirror, and a 470DF40 emission filter. CYFRET was imaged using a 420DF20 excitation filter, a 455DRLP dichroic mirror, and a 535DF25 emission filter. YFP was imaged using a 495DF10 excitation filter, a 515DRLP dichroic mirror, and a 535DF25 emission filter. Exposure times for each channel were 250-500 ms. All filter sets were controlled by a Lambda 10-2 filter-changer (Sutter Instruments). All fluorescence images were background-correcting by rolling circle background subtraction in ImageJ using a rolling-ball circle radius of 350 pixels. Cyan/yellow or yellow/cyan emission ratios were then calculated by dividing the CFP channel values by the CYFRET channel values, or the CYFRET channel values by CFP channel values, respectively. For the time-series analysis, all values were normalized to the time point prior to drug addition by dividing each value by basal ratio value prior to drug addition. Co-expression experiments were processed using Cell Profiler on background subtracted images and segmented using CYFRET channel images. Individual t½ measurements were acquired using custom script within Matlab.

ERK = ERK activity reporter (EKAR4) Y/C emission ratio in COS-7 cells; conditions: 10 μM, 3 hr
KRasWT = target: T1, KRasWT (Homo sapiens, UniProt P01116); assay: Live-cell Ras inhibitor assay, COS-7 cells co-expressing RasAR and KRasWT control; conditions: KRasWT controls, 10 μM, 24 hr, vs DMSO
T1 construct: host or cells: COS-7

mCherry-KRasG12C = assay: Ras expression assessed by RFP intensity in COS-7 cells
KRasG12C = target: T2, KRasG12C (Homo sapiens, UniProt P01116, G12C)
T2 construct: expressed in transfected cells; host or cells: COS-7

EGFR = assay: Reversal of EGF-induced RasAR response by EGFR inhibitor; conditions: RasAR + mCherry-KRasWT, 100 ng/ml EGF followed by 200 nM AG1478
Text: To determine whether RasAR can detect dynamic Ras activity, we co-expressed the sensor with mCherry-KRasWT in COS-7 cells and stimulated the cells with epidermal growth factor (EGF). […] Consistent with previous studies,26 we observed higher C/Y emission ratios in membrane ruffles following EGF stimulation, indicating enhanced KRas activity in these regions. In addition, consistent with the Golgi localization of Ras,26 we observed an increased activity in the Golgi compartment (FIGS. 2A and 8). […] The EGF-stimulated increases in the emission ratio occurred in both the membrane ruffles as well as the Golgi compartment (FIGS. 2B-2C and 8), with slower kinetics observed at the Golgi (FIG. 7A).
Cells were washed three times with Hanks's balanced salt solution (HBSS, Gibco) prior to imaging. Cells were imaged in HBSS in the dark at 37° C. […] Cells were imaged on a Zeiss Axio Observer Z1 microscope equipped with a 20×/0.8 NA objective and a Hamamatsu Flash 4.0 sCMOS camera, controlled using MicroManager 2.0 software. […] All fluorescence images were background-correcting by rolling circle background subtraction in ImageJ using a rolling-ball circle radius of 350 pixels. Cyan/yellow or yellow/cyan emission ratios were then calculated by dividing the CFP channel values by the CYFRET channel values, or the CYFRET channel values by CFP channel values, respectively. […]

How did the “effect of pretreatment on EGF-induced response at the Golgi” value (Src; GA-RasAR + mCherry-HRas, vs DMSO, n=300 cells each) turn out when `CC(C)(C)n1nc(-c2ccc(Cl)cc2)c2c(N)ncnc21` [PP2] was run?
The value was “enhanced”.

What about the “effect of pretreatment on EGF-induced response, cytosolic RasAR” value (Src; vs DMSO) of the same compound?
The value was “larger EGF-induced response”.

And the “effect of pretreatment on EGF-induced response, HRasY32F” value (Src; RasAR + mCherry-HRasY32F, PP2 1 μM, vs control cells)?
Its value is “enhanced response to EGF”.

And the “effect of pretreatment on EGF-induced response, HRas Y32F/Y64F” value (Src; RasAR + mCherry-HRasY32F/Y64F, vs control cells, n=180 cells each)?
The value was “no significant difference”.

And the “effect of pretreatment on EGF-induced Ras activity at the plasma membrane” value (Src; pm-RasAR + mCherry-HRasWT, vs DMSO)?
The value was “did not affect EGF-induced Ras activity”.

`COc1cc2ncnc(Nc3ccc(Oc4ccccc4)cc3)c2cc1OC` [SrcI1] was tested. Which “effect of pretreatment on EGF-induced response, cytosolic RasAR” value (Src; vs DMSO) did it give?
The value was “enhanced EGF-induced Ras activity”.

Which results are given for `C=CC(=O)N1CCN(c2ncnc3c(F)c(-c4c(O)cccc4F)c(Cl)cc23)CC1` [ARS1620]?
Cohen's d, effect of treatment on EKAR4 Y/C emission ratio (ERK; mCherry-KRasG12C expressing COS-7 cells): 0.84; Cohen's d, effect of treatment on EKAR4 Y/C emission ratio (ERK; mCherry-KRasWT expressing COS-7 cells): 0.02; effect on RasAR C/Y emission ratio (KRasWT): no effect of inhibitor treatment; Cohen's f, RFP intensities across titration treatment groups (mCherry-KRasG12C; ARS1620 titration experiment, 24 hr): 0.06; time over which the C/Y emission ratio continuously declines after treatment (KRasG12C; 10 μM inhibitor): 5 h; concentration dependence of C/Y emission ratio (KRasG12C; 10 μM, 3 μM, 1 μM, 0.3 μM, 0.1 μM, 24 hr): dose-dependent inhibition of KRasG12C; effect on RasAR C/Y emission ratio (KRasG12C; 10 μM, 24 hr, vs DMSO): higher C/Y emission ratio in KRasG12C-expressing cells treated with DMSO compared with ARS1620 treatment

How did the “effect on C/Y emission ratio after EGF stimulation” value (EGFR) turn out when `COc1cc2ncnc(Nc3cccc(Cl)c3)c2cc1OC` [AG1478] was run?
The value was “decrease in the C/Y emission ratio”.

`C[C@@H]1C[C@@H]([C@H](O)CC2CC(=O)NC(=O)C2)C(=O)[C@@H](C)C1` [cycloheximide] was tested. Which “effect on KRasG12C expression levels” value (mCherry-KRasG12C; 24-hr timeframe) did it give?
Its value is “reduced KRasG12C expression levels”.

And the “Cohen's d, RFP intensities with and without cycloheximide” value (mCherry-KRasG12C; ARS1620 10 μM, cycloheximide 100 μg/ml)?
Its value is 0.36.

What about the “Cohen's f, effect of treatment on mCherry-KRasG12C expression by RFP intensity” value (mCherry-KRasG12C; cycloheximide treatment 24 hr) of the same compound?
The value was 1.26.

What about the “effect of inhibiting protein re-synthesis on kinetics of Ras inactivation by ARS1620” value (KRasG12C; ARS1620 10 μM with cycloheximide 100 μg/ml) of the same compound?
The value was “did not speed up the kinetics of Ras inactivation”.
